Experimental data reported in patent US7511123B2, “Immuno-interactive fragments of the alpha-C subunit of inhibin” (Prince Henry's Institute of Medical Research, priority 1999, dated 2009).

B1: rh-inhibin B: recombinant human inhibin B (protein, UniProt P05111 233-366; P09529 293-407, looked up)
Inhibin alpha chain: STPLMSWPWSPSALRLLQRPPEEPAAHANCHRVALNISFQELGWERWIVYPPSFIFHYCHGGCGLHIPPNLSLPVPGAPPTPAQPYSLLPGAQPCCAALPGTMRPLHVRTTSDGGYSFKYETVPNLLTQHCACI
Inhibin beta B chain: GLECDGRTNLCCRQQFFIDFRLIGWNDWIIAPTGYYGNYCEGSCPAYLAGVPGSASSFHTAVVNQYRMRGLNPGTVNSCCIPTKLSTMSMLYFDDEYNIVKRDVPNMIVEECGCA
B2: rh-inhibin A: recombinant human inhibin A standard (protein)
chain 1: B1 Inhibin alpha chain
chain 2: GLECDGKVNICCKKQFFVSFKDIGWNDWIIAPSGYHANYCEGECPSHIAGTSGSSLSFHSTVINHYRMRGHSPFANLKSCCVPTKLRPMSMLYYDDGQNIIKKDIQNMIVEECGCS
B3: Pro-(alpha)C: preparation provided as standard in Pro-(alpha)C ELISA by Oxford Bio-innovations Ltd, UK (protein)
chain: CQGLELARELVLAKVRALFLDALGPPAVTREGGDPGVRRLPRRHALGGFTHRGSEPEEEEDVSQAILFPATDASCEDKSAARGLAQEAEEGLFRYMFRPSQHTRSRQVTSAQLWFHTGLDRQGTAASNSSEPLLGLLALSPGGPVAVPMSLGHAPPHWAVLHLATSALSLLTHPVLVLLLRCPLCTCSARPEATPFLVAHTRTRPPSGGERARRSTPLMSWPWSPSALRLLQRPPEEPAAHANCHRVALNISFQELGWERWIVYPPSFIFHYCHGGCGLHIPPNLSLPVPGAPPTPAQPYSLLPGAQPCCAALPGTMRPLHVRTTSDGGYSFKYETVPNLLTQHCACI
B4: rh-activin A: recombinant human activin A (protein, UniProt P08476 311-426, looked up)
Inhibin beta A chain: B2 chain 2

What was measured:
As #41 = assay: RIA (Assay 2): competition with iodinated inhibin for As #41; format: binding, sheep; settings: for As#41 ED50: biotinylated peptides, 50% fall in binding of iodinated inhibin
From the text: (§1) This assay was used to determine which peptides compete with iodinated 30 kDa inhibin for As #41, #128 and #1989 (used in the original inhibin RIA, Lapphorn et al., 1989, supra) in a RIA format. This assay identifies those peptides that bind to inhibin-binding antibodies in the antiserum and provides a stricter affinity and specificity assessment in identifying the appropriate epitopes than that found with Assay 1. The competition between peptide and hr-inhibin (used as the standard) was assessed from their ED50 values. The RIA consisted of the competition of iodinated inhibin and either hr-inhibin reference preparation, individual peptides or pools from the 4 peptide regions, with As #41, #128 and in some instances, As #1989. The peptides/inhibin/iodinated inhibin and antisera (at a prescribed dilution) were incubated overnight at 4° C. using standard methodologies. The antibody-bound iodinated inhibin was immunoprecipitated with the addition of an anti-sheep IgG serum raised in goats and the radioactivity was measured in a gamma counter. The concentration of peptide that gives a 50% fall in binding of iodinated inhibin (ED50) was determined and this value was used to give a measure of the affinity of the peptide for the antiserum. This methodology consisted of determining the ED50 of the peptide in the RIA using iodinated human recombinant inhibin as tracer with either As #41, As #128 or As #1989 and graded doses of either hr-inhibin or peptide as described in Example 2.

As #128 [1] = assay: RIA (Assay 2): competition with iodinated inhibin for As #128; format: binding, sheep; settings: for As#128 ED50: biotinylated peptides, 50% fall in binding of iodinated inhibin
From the text: as §1

As #1989 = assay: RIA (Assay 2): competition with iodinated inhibin for As #1989; format: binding, rabbit; settings: for As#1989 ED50: biotinylated peptides, 50% fall in binding of iodinated inhibin
From the text: as §1

As #128 [2] = assay: Competitive 2-site assay (Assay 3), approach (a); format: binding, sheep; set-up: key: +++++ major contribution; + minor contribution; settings: relative contribution
From the text: This assay was developed to establish the relative importance of the individual peptides and peptide pools (identified as epitopes in Assays 1 and 2) in the sandwich antibody format used in the IFMA with As #128 as capture antibody and As #41 as detection antibody. Two approaches (a and b) were considered, Approach (a) explores the cross-reaction of peptides with inhibin for the immobilized As #128 while Approach (b) assesses their cross-reaction with inhibin for As #41.
Approach (a). The biotinylated peptide pools and/or individual peptides at various concentrations, in combination with a fixed concentration of hr-inhibin, were incubated for 2 hours with As #128-coated plates. The plates were then washed to remove any unbound material. Iodinated As #41 was then added to bind to the bound hr-inhibin, the plates washed and the bound radioactivity was measured in a gamma counter. The counts measured were proportional to the amount of hr-inhibin bound to both antisera. The possibility that a peptide contained two epitopes capable of linking As #128 and #41 was assessed in the absence of added hr-inhibin.

As #128 [3] = assay: Solid phase assay (Assay 1): biotinylated peptides binding to As #128; set-up: species or system sheep; key: +++++ major contribution; + minor contribution; settings: relative contribution
Method: This assay is a broad screen of the binding of the 31 biotinylated peptides to As #41 and #128 as recommended by Chiron Mimotopes.
The biotinylated peptides were initially bound to streptavidin-coated 96-well plates (2 hours at room temperature), antiserum #41 or #128 was then added (2 hours room temperature) to bind to the peptides. Detection of antiserum binding was assessed by a further incubation with an anti-ovine IgG serum labeled with the enzyme, horseradish peroxidase. The enzyme activity was assessed by conversion of a colorless substrate to a colored product that is detected in a spectrophotometer. The enzyme activity measured was proportional to the extent of the binding of the peptides.

PO#23-R1 = assay: Cross-reaction of inhibin-related proteins in 23-R1 ELISA; format: binding, mouse; settings: relative to rh inhibin A standard (=100); average of two experiments
Method: (§2) An ELISA system using 96-well microtiter plates was developed consisting of one alpha subunit antibody as coating antibody and an alkaline phosphatase-linked second antibody as label. The alkaline phosphatase activity was amplified using an ELISA amplification kit (Gibco, Life Technologies, Rockville Md., USA). The plate was initially coated with monoclonal antibody at 2 micrograms/well in 0.1 M bicarbonate buffer pH 9.4 overnight at room temperature and blocked with 50 mM TRIS/HCl, 1% bovine serum albumin (BSA) pH 7.4.
(§3) The ELISAs in application to non-serum samples consisted of 100 microliters sample or recombinant human (rh) inhibin A standard (provided by National Institute of Biological Standards and Control, Potters Bar, Herts, UK) in assay buffer (100 mM TRIS/HCl, 154 mM NaCl, 5% Triton-X-100, 10% BSA pH, 7.5) and 100 microliters assay buffer. In the assay of serum, the inhibin A standard (100 microliters) was diluted in assay buffer. Inhibin-free serum (100 microliters) was also added to make a total well volume of 200 microliters. The inhibin-free serum was obtained by incubating serum with an immobilized inhibin alpha subunit antibody. […] Serum samples were initially boiled in the presence of SDS (2% final concentration) and diluted 1:1 with assay buffer before adding 100 microliters to the wells. The inhibin-free serum and the SDS boiling steps were included to offset any potential matrix effects of serum known to affect other inhibin ELISAs although the need for these specific steps had not been assessed.
(§4) The plate was incubated with shaking overnight at room temperature. The wells were washed, and alkaline phosphatase (AP)-linked antibody added, incubated with shaking for 3 hours at room temperature and washed again. The substrate (NADPH, Gibco) was added and the plate incubated for 2 hours with shaking at room temperature. The amplifying enzymes (alcohol dehydrogenase and diaphorase, Gibco) were added and incubated for 5-15 min until appropriate color had developed. The plate was read at 490/630 nm on an ELISA plate reader.
(§5) The specificity of the ELISAs was assessed by determining the cross-reaction of inhibin-related proteins in the various ELISAs.

PO#14-R1 = assay: Cross-reaction of inhibin-related proteins in 14-R1 ELISA; format: binding, mouse; settings: relative to rh inhibin A standard (=100); average of two experiments
Method: as §2, §3, §4, §5

PO#14 + PO#23-R1 = assay: Cross-reaction of inhibin-related proteins in 14 + 23-R1 ELISA; format: binding, mouse; settings: relative to rh inhibin A standard (=100); average of two experiments
Method: as §2, §3, §4, §5
As a result of an initial characterization of these ELISAs (see below), a combination of PO#14+PO#23 as coating antibodies and AP linked-R1 antibody as tracer was also assessed and its characteristics are also presented in Table 11 and 12 and FIG. 10c.

[4] = non-biotinylated peptides, hr-inhibin A as standard

Molecule | As#41 ED50 (As #41) [nM] | As#128 ED50 (As #128 [1]) [nM] | As#1989 ED50 (As #1989) [nM] | other results
Hr-inhibin: human recombinant 30 kDa inhibin A [reference compound] | – | – | – | ED50 values As#41 (As #41; [4]): 2 to 8000 nM; ED50 values As#128 (As #128 [1]; [4]): 2 nM; ED50 values As#1989 (As #1989; [4]): 0.1 nM
SGSG AAHANCHRVALNIS [Peptide 9] | >10000 | >10000 | >2500 | –
SGSG ELGWERWIVYPPSF [Peptide 13] | >10000 | >10000 | >2500 | –
SGSG ERWIVYPPSFIFHY [Peptide 14] | >10000 | >10000 | >2500 | –
SGSG GGCGLHIPPNLSLP [Peptide 18] | 1050 | 60 | >2500 | #128 2-site competitive assay Assay 3 (As #128 [2]): +; #128 Antibody screen Assay 1 (As #128 [3]): +
SGSG HYCHGGCGLHIPPN [Peptide 17] | 1050 | 10000 | >2500 | –
SGSG ISFQELGWERWIVY [Peptide 12] | >10000 | >10000 | >2500 | –
SGSG LHIPPNLSLPVPGA [Peptide 19] | 2100 | <10 | >2500 | #128 2-site competitive assay Assay 3 (As #128 [2]): +; #128 Antibody screen Assay 1 (As #128 [3]): +
SGSG LPVPGAPPTPAQPY [Peptide 21] | 1000 | 156 | >2500 | –
SGSG LQRPPEEPAAHANC [Peptide 7] | 1250 | 1600 | >2500 | #128 2-site competitive assay Assay 3 (As #128 [2]): +; #128 Antibody screen Assay 1 (As #128 [3]): +
SGSG NCHRVALNISFQEL [Peptide 10] | >10000 | >10000 | >2500 | –
SGSG PEEPAAHANCHRVA [Peptide 8] | >10000 | 4800 | >2500 | –
SGSG PLHVRTTSDGGYSF [Peptide 29] | 5000 | 156 | >2500 | –
SGSG SFIFHYCHGGCGLH [Peptide 16] | >10000 | >10000 | >2500 | –
SGSG SFKYETVPNLLTQH [Peptide 32] | 290 | 2500 | >2500 | –
SGSG VALNISFQELGWER [Peptide 11] | >10000 | >10000 | >2500 | –
SGSG VYPPSFIFHYCHGG [Peptide 15] | >10000 | >10000 | >2500 | –
B1 | – | – | – | 23-R1 ELSIA specificity (PO#23-R1): 253; 14-R1 ELISA specificity (PO#14-R1): 320; 14 + 23-R1 ELISA specificity (PO#14 + PO#23-R1): 138
B2 | – | – | – | 23-R1 ELSIA specificity (PO#23-R1): 100; 14-R1 ELISA specificity (PO#14-R1): 100; 14 + 23-R1 ELISA specificity (PO#14 + PO#23-R1): 100
B3 | – | – | – | 23-R1 ELSIA specificity (PO#23-R1): 41.5; 14-R1 ELISA specificity (PO#14-R1): 98.5; 14 + 23-R1 ELISA specificity (PO#14 + PO#23-R1): 38.5
B4 | – | – | – | 23-R1 ELSIA specificity (PO#23-R1): <0.2; 14-R1 ELISA specificity (PO#14-R1): <0.2; 14 + 23-R1 ELISA specificity (PO#14 + PO#23-R1): <0.2
